The values that follow are results of earlier work, collected in US9597377B2, “Stable formulations of purified proteins” (MOUNT SINAI SCHOOL OF MEDICINE OF NEW YORK UNIVERSITY, priority 2003, dated 2017).

The structures appear in SMILES notation. Where a chain is given by its changes, count along the chain named.

One series deals with T1, mutant α-Gal A (R301Q) (Homo sapiens, UniProt P06280, R301Q).
T1 sequence (P06280 32-429 R301Q): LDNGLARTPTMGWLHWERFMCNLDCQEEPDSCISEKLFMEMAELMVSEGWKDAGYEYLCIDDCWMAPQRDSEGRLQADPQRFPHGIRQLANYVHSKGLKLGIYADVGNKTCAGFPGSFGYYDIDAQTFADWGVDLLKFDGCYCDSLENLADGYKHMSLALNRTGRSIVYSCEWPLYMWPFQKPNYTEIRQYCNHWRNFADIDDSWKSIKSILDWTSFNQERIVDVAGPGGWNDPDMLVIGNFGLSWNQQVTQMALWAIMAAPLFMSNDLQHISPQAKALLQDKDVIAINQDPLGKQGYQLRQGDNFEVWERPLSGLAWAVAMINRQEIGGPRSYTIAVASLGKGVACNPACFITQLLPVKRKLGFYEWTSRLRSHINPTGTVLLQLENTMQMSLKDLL
The note with it: neutral pH; cited from earlier work.

Series [1] deals with lymphoblasts established from Fabry patients with R301Q or Q279E mutations. Conditions: cited from earlier work.
A further series addresses T2, mutant (R301Q) α-Gal A (Homo sapiens, UniProt P06280, R301Q).
T2 construct: host or cells: transgenic mice overexpressing the mutant enzyme; activity measured in major organs
T2 sequence (P06280 32-429 R301Q): T1 sequence (P06280 32-429 R301Q)
The note with it: oral administration, transgenic mice overexpressing mutant (R301Q) α-Gal A; cited from earlier work.

Series [2] deals with T3, wild-type α-Gal A in COS-7 cells (Homo sapiens, UniProt P06280).
T3 construct: expressed in transfected cells; host or cells: COS-7 cells
T3 sequence (P06280 32-429): T1 sequence (P06280 32-429 R301Q) with Q270R
The note with it: COS-7 cells transfected with vector coding wild-type α-Gal A; cited from earlier work.

For the compound `OC[C@H]1NC[C@H](O)[C@@H](O)[C@H]1O` [DGJ, 1-deoxygalactonojirimycin], the “in vitro stability of mutant α-Gal A (R301Q)” value at mutant α-Gal A (R301Q) was “effectively increased in vitro stability”. In addition, the “mutant enzyme activity in lymphoblasts” value in series [1] is recorded as “enhanced the mutant enzyme activity”. Also, the “enzyme activity in major organs” value at mutant (R301Q) α-Gal A is “substantially elevated the enzyme activity”. Moreover, in series [2], the “amount and activity of wild-type α-Gal A” value was “increase the amount and activity”.
